Patent US8187825B2, “Thiol detection method” (Riken, priority 2008, dated 2012)

How the values were obtained:
[1] = cited from earlier work
[2] = Fluorescence measurement of probe with cysteine; conditions: 100 nM probe
Description: The reaction was carried out using the 100 nM probe (compound 2) and 10 mM cysteine at 37° C. for 30 minutes in 50 mM Tris-HCl (pH 7.4). A fluorescence spectrum was obtained with a fluorescence spectrometer (FP-6500; JASCO). Fluorescence was obtained by excitation at 490 nm at a scanning range of 450 to 650 nm.
Fluorescence was monitored by excitation at 490 nm.

[3] = Reactivity of probe with thiol (fluorescence intensity at 522 nm); conditions: 1 μM probe, 37° C., 30 minutes, 50 mM Tris-HCl pH 7.4
Description: The reactivity of the probe (compound 2) with several types of thiols was examined by measuring an increase in the fluorescence intensity at 522 nm. The reaction was carried out using the 1 μM probe and 1 mM thiol at 37° C. for 30 minutes in 50 mM Tris-HCl (pH 7.4).
In addition, as a comparative example, a compound represented by the following formula (3) was used as a probe, and its reactivity was examined in the same above manner:
After addition of thiol, the solution was incubated at 37° C. for 30 minutes. The fluorescence at 522 nm was monitored by excitation at 490 nm. “3′-thio dT” indicates 3′-phosphorothioate-2′-deoxythymidine; “DTT” indicates dithiothreitol; “GSH” indicates glutathione; “L-Gly” indicates L-glycine; and “Vc” indicates ascorbic acid.

[4] = Stability of probe on heating in Tris buffer; type: physicochemical; conditions: 55° C. for 24 hours in 50 mM Tris buffer (pH 7.4)
[5] = system: HeLa cells; experiment: Fluorescence microscope observation of living HeLa cells; type: cell-based
Description: HeLa cells were allowed to grow at 37° C. in a 5% CO2 atmosphere in MEM in order to use them for a test with living cells. The cells were incubated at 37° C. for 15 minutes in the presence of the 25 μM probe (compound 2) (1:100 DMSO/PBS(−), v/v). As a control experiment, the cells were treated with 1 mM N-methylmaleimide in PBS(−) at 37° C. for 60 minutes, and the resultant cells were then washed with a PBS(−) buffer three times. Thereafter, the cells were incubated at 37° C. for 15 minutes in the presence of the 25 μM probe (1:100 DMSO/PBS(−), v/v).
The fluorescence image was obtained using a digital camera (Cool Snap HQ; Roper Scientific) and imaging software (MetaMorph; Molecular Devices), under a fluorescence microscope equipped with a mercury lamp (Axiovert 200M; Carl Zeiss). The conditions of the microscope were determined as follows. Excitation: 470/40 bandpass filter; light emission: 525/50 bandpass filter; and irradiation time: 300 msec.
(a, b): a control image of the cells, which were pre-treated with N-methylmaleimide (1 mM) at 37° C. for 60 minutes and were then incubated together with the probe (25 μM) at 37° C. for 15 minutes; (c, d): an image of the cells, which were incubated together with the probe (25 μM) at 37° C. for 15 minutes; (a, c) a bright-field image; (b, d) a fluorescent image. The conditions of the microscope were determined as follows. Excitation: 470/40 bandpass filter; light emission: 525/50 bandpass filter; and irradiation time: 300 msec.

[6] = Fluorescence measurement in solution with GSH; conditions: 100 nM probe
Description: The 100 nM probe (compound 4) was allowed to react with 10 mM GSH in 50 mM Tris-HCl (pH 7.4) at 37° C. for 30 minutes. Thereafter, the fluorescence intensity was measured using a fluorescence spectrometer (FP-6500; JASCO) (excitation wavelength: 540 nm).

[7] = system: HL60; experiment: Flow cytometry of HL60 cells; type: cell-based; conditions: 100 μM probe, 37° C., 15 minutes; control pre-treated with 1 mM N-methylmaleimide 30 minutes
Description: The 100 μM probe (compound 4) was added to HL60, and the mixture was then reacted at 37° C. for 15 minutes. Thereafter, a measurement was then carried out by flow cytometry. 1 mM N-methylmaleimide (N-MMI) used as a thiol-blocking agent was added to HL60, and the obtained mixture was then reacted at 37° C. for 30 minutes. Thereafter, the 100 μM probe was added to the reaction product, and the obtained mixture was reacted at 37° C. for 15 minutes. Thereafter, the measurement was carried out by flow cytometry.

SMILES: OCCS [2-mercaptoethanol]
- pKa value [1]: 9.5

SMILES: O=C1OC2(c3ccc(NS(=O)(=O)c4ccc([N+](=O)[O-])cc4[N+](=O)[O-])cc3Oc3cc(NS(=O)(=O)c4ccc([N+](=O)[O-])cc4[N+](=O)[O-])ccc32)c2ccccc21 [compound 2]
- increase in fluorescence intensity around 520 nm after addition of cysteine (factor) ([2]; 10 mM cysteine, 50 mM Tris-HCl pH 7.4, 37° C., 30 minutes, excitation 490 nm): approximately 3500
- fluorescence of the probe without cysteine ([2]; no cysteine, 50 mM Tris-HCl pH 7.4, excitation 490 nm): no significant fluorescence was observed
- increase in fluorescence intensity at 522 nm ([3]; 1 mM 2-mercaptoethanol (ME)): 11 times
- activity on other biological substances (selectivity) ([3]; glycine, ascorbic acid, or hydrogen peroxide): did not exhibit activity
- stability: fluorescence signal after heating [4]: no increase in the fluorescence signal was detected
- fluorescence signal of cells pre-treated with thiol-blocking agent ([5]; HeLa cells pre-treated with 1 mM N-methylmaleimide 60 minutes, then 25 μM probe 15 minutes): no fluorescence signal was observed
- permeation into cells ([5]; HeLa cells, 25 μM probe): permeates into the cell membrane
- fluorescence signal of cells ([5]; HeLa cells, 25 μM probe, 15 minutes, 37° C.): significant fluorescence signal

SMILES: Nc1ccc2nc3c4ccccc4/c(=N\S(=O)(=O)c4ccc([N+](=O)[O-])cc4[N+](=O)[O-])cc-3oc2c1 [compound 4]
- fluorescence intensity at 620 nm after reaction with GSH ([6]; 10 mM GSH, 37° C., 30 minutes, 50 mM Tris-HCl pH 7.4, excitation 540 nm): an increase in the fluorescence intensity was observed
- fluorescence of the probe as a single body (without GSH) ([6]; excitation 540 nm, 50 mM Tris-HCl pH 7.4): generated no fluorescence
- fluorescence intensity of HL60 cells (−N-MMI) versus HL60 cells (+N-MMI) [7]: higher

SMILES: O=C1OC2(c3ccc(NS(=O)(=O)c4ccc([N+](=O)[O-])cc4)cc3Oc3cc(NS(=O)(=O)c4ccc([N+](=O)[O-])cc4)ccc32)c2ccccc21 [formula (3), reference compound]
- increase in fluorescence intensity at 522 nm ([3]; 1 mM phosphorothioate (3′-thio dT)): approximately 950 times
- reaction with other thiol groups ([3]; 1 mM thiols other than phosphorothioate): did not react with other thiol groups
